What was measured:
[1] = system: K562 cells; experiment: Cell viability assay, Annexin V/7-AAD, 72 h, K562 cells
Description: (§1) Cells were washed and resuspended in fresh culture media before culture in 24-well plates (Thermo Fisher Scientific, Waltham, MA, USA) in the presence of TKI at a density of 2×10^5 cells/mL. Plates were seeded with 1 mL of cell suspension in triplicate, placed in sterilised containers and incubated for 72 h before cell viability determination with 7-aminoactinomycin D (7-AAD; Invitrogen Life Technologies, Carlsbad, CA, USA) and Phycoerythrin (PE)-conjugated Annexin V antibody (BD Biosciences, Franklin Lakes, NJ, USA). Flow cytometric analysis was conducted with an FC500 flow cytometer (Beckman Coulter, Miami, FL, USA) and FCS Express 4 software (De Novo Software, Los Angeles, CA, USA).
Error bars represent SEM.

[2] = system: K562-Dox cells; experiment: Cell viability assay, Annexin V/7-AAD, 72 h, K562-Dox cells
Description: as §1
Error bars represent SEM.

[3] = system: K562 cells; experiment: % live cells during nilotinib dose escalation, K562 resistance intermediates; assay type: cell-based
[4] = system: K562-Dox cells; experiment: % live cells during nilotinib dose escalation, K562-Dox resistance intermediates; assay type: cell-based
[5] = system: LYN mRNA; experiment: LYN mRNA expression by RQ-PCR in nilotinib resistant K562 cells; assay type: cell-based; conditions: K562 #6 NIL cells and later intermediates, duration of nilotinib escalation

Cc1nc(Nc2ncc(C(=O)Nc3c(C)cccc3Cl)s2)cc(N2CCN(CCO)CC2)n1 [dasatinib]
survival (% live cells) ([1]; K562 #6 NIL cells, 500 nM dasatinib): 74%
survival (% live cells) ([1]; K562 #10 NIL cells, 500 nM dasatinib): 74%
survival (% live cells) ([1]; K562 control cells, 500 nM dasatinib): 21%
survival (% live cells) ([2]; K562-Dox #5 NIL cells, 100 nM dasatinib): 60%
survival (% live cells) ([2]; K562-Dox control cells, 100 nM dasatinib): 5%

Cc1ccc(NC(=O)c2ccc(CN3CCN(C)CC3)cc2)cc1Nc1nccc(-c2cccnc2)n1 [imatinib]
survival (% live cells) ([1]; K562 #6 NIL cells, 5 μM imatinib): 92%
survival (% live cells) ([1]; K562 #10 NIL cells, 5 μM imatinib): 89%
survival (% live cells) ([1]; K562 control cells, 5 μM imatinib): 29%
survival (% live cells) ([2]; K562-Dox #5 NIL cells, 5 μM imatinib): 79%
survival (% live cells) ([2]; K562-Dox control cells, 5 μM imatinib): 31%

Cc1cn(-c2cc(NC(=O)c3ccc(C)c(Nc4nccc(-c5cccnc5)n4)c3)cc(C(F)(F)F)c2)cn1 [nilotinib]
% Live Cells ([3]; K562 intermediate #1, cultured in 15 nM NIL, 10 days in culture): 95.0%
% Live Cells ([3]; K562 intermediate #2, cultured in 25 nM NIL, 11 days in culture): 99.1%
% Live Cells ([3]; K562 intermediate #3, cultured in 50 nM NIL, 10 days in culture): 96.7%
% Live Cells ([3]; K562 intermediate #4, cultured in 75 nM NIL, 14 days in culture): 93.7%
% Live Cells ([3]; K562 intermediate #5, cultured in 100 nM NIL, 12 days in culture): 94.6%
% Live Cells ([3]; K562 intermediate #6, cultured in 125 nM NIL, 28 days in culture (prolonged exposure)): ~ 80%
% Live Cells ([3]; K562 intermediate #6, cultured in 125 nM NIL, 28 days in culture (prolonged exposure), listed as NIL): 83.6%
% Live Cells ([3]; K562 intermediate #7, cultured in 140 nM NIL, 17 days in culture): 87.4%
% Live Cells ([3]; K562 intermediate #8, cultured in 300 nM NIL, 12 days in culture): 93.3%
% Live Cells ([3]; K562 intermediate #9, cultured in 400 nM NIL, 14 days in culture): 90.8%
% Live Cells ([3]; K562 intermediate #10, cultured in 2 μM NIL, continuous culture): 94.1%
% Live Cells ([4]; K562-Dox intermediate #1, cultured in 15 nM NIL, 11 days in culture): 99.6%
% Live Cells ([4]; K562-Dox intermediate #2, cultured in 30 nM NIL, 10 days in culture): 96.9%
% Live Cells ([4]; K562-Dox intermediate #3, cultured in 60 nM NIL, 11 days in culture): 98.5%
% Live Cells ([4]; K562-Dox intermediate #4, cultured in 100nM NIL, 12 days in culture): 91.3%
% Live Cells ([4]; K562-Dox intermediate #5, cultured in 125 nM NIL, 81 days in culture): 73.6%
% Live Cells ([4]; K562-Dox intermediate #6, cultured in 200 nM NIL, 16 days in culture): 76.6%
% Live Cells ([4]; K562-Dox intermediate #7, cultured in 1 μM NIL, 19 days in culture): 75.8%
% Live Cells ([4]; K562-Dox intermediate #8, cultured in 2 μM NIL, continuous culture): 90.7%
LYN mRNA increase compared with control cells [5]: 15–18 fold
survival (% live cells) ([1]; K562 #6 NIL cells, 1000 nM nilotinib): 87%
survival (% live cells) ([1]; K562 #10 NIL cells, 1000 nM nilotinib): 85%
survival (% live cells) ([1]; K562 control cells, 1000 nM nilotinib): 19%
survival (% live cells) ([2]; K562-Dox #5 NIL cells, 1000 nM nilotinib): 74%
survival (% live cells) ([2]; K562-Dox control cells, 1000 nM nilotinib): 8%
